Laboratory results as given in PubChem BioAssay (NCI).
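Five concentrations, 48 hours, 96-well plates. GI50 = concentration required for 50% inhibition of growth. TGI marks complete inhibition of growth.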

Columns and labels:
Experiment in all cases: NCI tumour cell line growth inhibition, 48 h
[1] = system: ACHN renal
[2] = system: COLO 205 colon
[3] = system: HCT-15 colon
[4] = system: HS 578T breast
[5] = system: MDA-N
[6] = system: RXF 393 renal
[7] = system: SF-268 CNS
[8] = system: SF-539 CNS
[9] = system: SK-MEL-28 melanoma
[10] = system: UACC-257 melanoma

Compound	TGI [1] [µM]	TGI [2] [µM]	TGI [3] [µM]	TGI [4] [µM]	TGI [5] [µM]	TGI [6] [µM]	TGI [7] [µM]	TGI [8] [µM]	TGI [9] [µM]	TGI [10] [µM]	GI50 [1] [µM]	GI50 [2] [µM]	GI50 [3] [µM]	GI50 [4] [µM]	GI50 [6] [µM]	GI50 [7] [µM]	GI50 [8] [µM]	GI50 [9] [µM]	GI50 [10] [µM]
Cc1ccc(C(=O)Nc2ccc(S(=O)(=O)O)c3cc(S(=O)(=O)O)cc(S(=O)(=O)O)c23)cc1NC(=O)c1cccc(NC(=O)Nc2cccc(C(=O)Nc3cc(C(=O)Nc4ccc(S(=O)(=O)O)c5cc(S(=O)(=O)O)cc(S(=O)(=O)O)c45)ccc3C)c2)c1 (tested in a mixture with another compound)	> 50	> 50	> 50	> 50	> 50	> 50	> 50	> 50	> 50	> 50	–	–	–	–	–	–	–	–	–
CCCCCCC(C)OC(=O)/C=C(\CC(=O)OC(C)CCCCCC)C(=O)OC(C)CCCCCC (stereo not drawn)	> 100	> 100	> 100	–	–	> 100	> 100	> 100	> 100	> 100	–	–	–	–	–	–	–	–	–
CSc1nc2c(=O)n(-c3ccccc3)c(=S)n(-c3ccccc3)c2s1	> 100	> 100	> 100	94.7	> 100	94.4	> 100	> 100	> 100	> 100	–	–	–	–	–	–	–	–	–
CCOc1ccc2nc(NC(NC(=O)c3cccnc3)(C(F)(F)F)C(F)(F)F)sc2c1	> 100	> 100	> 100	> 100	42.9	61.1	> 100	> 100	> 100	69.4	–	–	–	–	–	–	–	–	–
CC(C)(C)[C@H]1CCC2(OCCO2)[C@](O)(CCCO)C1	> 100	> 100	> 100	> 100	> 100	> 100	> 100	> 100	> 100	> 100	–	–	–	–	–	–	–	–	–
C=C(C(=O)OC)c1cc2ccccc2n1S(=O)(=O)c1ccccc1	5.89	3.82	5.37	18.8	14	2.54	8.22	3.66	5.79	18.7	–	–	–	–	–	–	–	–	–
CCN1CCC(O)(c2ccc(Oc3ccc(C)cc3)cc2)C(C(=O)c2ccc(Oc3ccc(C)cc3)cc2)C1 (stereo not drawn)	25.9	26.1	15.2	48.3	22.6	16.2	32.9	–	23.3	26.7	–	–	–	–	–	–	–	–	–
CCN(CC)CCCC(C)NC(=O)c1ccc2c(c1)C(=O)c1ccccc1C2=O (stereo not drawn)	38.2	23.3	40	–	–	42.8	80.4	36	29.8	26.1	–	–	–	–	–	–	–	–	–
CC(=O)N1c2ccccc2C(C)C1c1[nH]c2ccccc2c1C (stereo not drawn)	> 100	27.9	> 100	42.4	50.6	28.4	62	27.2	49.3	49.3	–	–	–	–	–	–	–	–	–
CSCCC(NC(=O)OCc1ccccc1)NC(=O)OCc1ccccc1	> 100	> 100	> 100	> 100	> 100	–	–	–	> 100	> 100	–	–	–	–	–	–	–	–	–
CC(=O)OCC1=C(C)C[C@H]([C@@H](COC(C)=O)C2CCC3C4C[C@H]5O[C@]56CC=CC(=O)[C@]6(C)C4CC[C@@]32C)OC1=O (stereo partly drawn)	2.68	1	0.296	17.8	0.675	1.12	6.78	–	1.19	2.99	–	–	–	–	–	–	–	–	–
CCN(CC)CCCOc1cc2c(cc1OC)C(=O)N1CCC[C@H]1C=N2	> 100	38.6	> 100	> 100	–	60	> 100	> 100	45.9	> 100	–	–	–	–	–	–	–	–	–
c1ccc2nc(CCC3CCCCN3)ccc2c1 (stereo not drawn)	> 100	31.5	> 100	> 100	> 100	> 100	> 100	–	> 100	> 100	–	–	–	–	–	–	–	–	–
COC(=O)c1ccccc1C1CN=NC12Cc1cccc(C)c1C2=O (stereo not drawn)	> 100	–	> 100	> 100	> 100	> 100	> 100	> 100	> 100	> 100	–	–	–	–	–	–	–	–	–
CCN(CC)C(=O)N1CN(c2ccccc2)C2(CCN(CCCSc3ccc(F)cc3)CC2)C1=O	15.8	–	26.4	16.6	21.3	29.7	36.1	20.7	37.1	12.8	–	–	–	–	–	–	–	–	–
Nn1c(Cc2ccccc2)n[nH]c1=O	> 100	> 100	> 100	> 100	> 100	–	> 100	> 100	> 100	> 100	–	–	–	–	–	–	–	–	–
Oc1ccc(C#CCOc2ccccc2)cc1CNCCN(Cc1ccccn1)Cc1ccccn1	2.38	9.74	3.55	6.14	–	2.96	4.29	3.09	5.91	6.83	1.16	2.8	1.13	1.69	1.49	1.37	1.6	2.04	2.55
C#CC(O)/C=C/C(O)CCCC(O)CC#CC(O)C#CC(O)CCCC(O)/C=C/CCCC(=O)CCCCCCCCCCCCCCCC(O)C(O)C#CC(=O)O (stereo not drawn)	> 50	> 50	> 50	> 50	> 50	> 50	> 50	–	> 50	> 50	–	–	–	–	–	–	–	–	–
NC1CC(=O)c2sccc21 (stereo not drawn)	> 100	> 100	> 100	> 100	–	> 100	> 100	> 100	> 100	> 100	–	–	–	–	–	–	–	–	–
CC[C@@]12C=CC(=S)N(CCSc3ccccc3)[C@@H]1c1c(n(S(=O)(=O)c3ccc(OC)cc3)c3ccccc13)CC2	–	> 100	> 100	> 100	> 100	> 100	> 100	> 100	> 100	> 100	–	–	–	–	–	–	–	–	–
O=c1c2ccccc2[nH]c2cc(O)cc(O)c12	> 100	–	> 100	–	–	> 100	> 100	> 100	> 100	> 100	–	–	–	–	–	–	–	–	–
O=C1c2ccccc2-c2nc(/C=C/c3ccccc3)cc3c2c1nc1ccccc13	> 100	69.8	40.8	62.6	–	> 100	> 100	> 100	44.6	> 100	–	–	–	–	–	–	–	–	–

Compound	TGI [1] [µM]	TGI [2] [µM]	TGI [3] [µM]	TGI [4] [µM]	TGI [5] [µM]	TGI [6] [µM]	TGI [7] [µM]	TGI [8] [µM]	TGI [9] [µM]	TGI [10] [µM]	GI50 [1] [µM]	GI50 [2] [µM]	GI50 [3] [µM]	GI50 [4] [µM]	GI50 [6] [µM]	GI50 [7] [µM]	GI50 [8] [µM]	GI50 [9] [µM]	GI50 [10] [µM]
O=C1C(NCCN2CCOCC2)=C(Cl)C(=O)c2ncccc21	2.31	–	1.52	2.87	0.346	1.4	3.37	2.53	2.99	–	–	–	–	–	–	–	–	–	–
NS(=O)(=O)c1nnc(NS(=O)(=O)c2ccccc2C(=O)O)s1	> 100	> 100	> 100	> 100	> 100	> 100	> 100	–	> 100	> 100	–	–	–	–	–	–	–	–	–
CC(NC(C#N)CC12CC3CC(CC(C3)C1)C2)c1ccccc1 (stereo not drawn)	> 100	> 100	> 100	–	> 100	–	> 100	–	> 100	> 100	–	–	–	–	–	–	–	–	–
O=[N+]([O-])c1ccc2c(c1)c(S(=O)(=O)O)cc1nonc12	> 100	> 100	> 100	> 100	> 100	–	> 100	> 100	> 100	> 100	–	–	–	–	–	–	–	–	–
NC1(C(=O)O)CCCC1	–	> 625	> 625	–	–	> 625	> 370	> 625	> 625	> 625	–	–	–	–	–	–	–	–	–
CC(=O)O[C@H]1C[C@H]2C(=S)Nc3ccccc3C(=S)N2C1	> 100	> 100	> 100	> 100	> 100	> 100	> 100	–	> 100	> 100	–	–	–	–	–	–	–	–	–
C=C1C(=O)O[C@@H]2[C@H](O)[C@@H](C)[C@@H]3C=CC(=O)[C@@]3(C)[C@H](OC(=O)C=C(C)C)[C@H]12	–	1.67	0.667	–	–	1.33	3.59	0.596	1.81	4.74	–	–	–	–	–	–	–	–	–
Oc1cccc(-c2cn3cc(C(F)(F)F)ccc3n2)c1	> 100	> 100	> 100	> 100	> 100	50.2	> 100	–	> 100	65.3	–	–	–	–	–	–	–	–	–
COC(=O)[C@H](Cc1ccccc1)NP(=O)(O)OCC1C=CC(n2cc(C)c(=O)[nH]c2=O)O1 (stereo partly drawn)	62.6	> 100	> 100	> 100	–	> 100	> 100	–	–	> 100	–	–	–	–	–	–	–	–	–
NC(=O)c1nnsc1NC=O	> 100	> 100	> 100	> 100	> 100	> 100	> 100	–	> 100	> 100	–	–	–	–	–	–	–	–	–
O=C1c2ccccc2C(=O)c2c(O)ccc(O)c21	> 100	> 100	> 100	–	–	> 100	> 100	> 100	> 100	> 100	–	–	–	–	–	–	–	–	–
O=C1CCCC2=C1CC1=C(CCCC1=O)N2c1ccccc1	> 100	–	> 100	> 100	–	> 100	> 100	> 100	> 100	–	–	–	–	–	–	–	–	–	–
CC1CCc2sc3[nH]c(=S)n(-c4ccccc4)c(=O)c3c2C1 (stereo not drawn)	> 100	> 100	> 100	> 100	> 100	> 100	> 100	–	> 100	> 100	–	–	–	–	–	–	–	–	–
CS(=O)(=O)OCCCOS(C)(=O)=O	> 100	> 100	> 100	–	–	> 100	> 100	> 100	> 100	> 100	–	–	–	–	–	–	–	–	–
COc1cc(C2c3cc4c(cc3[C@@H](Nc3cccc([N+](=O)[O-])c3)C3COC(=O)[C@H]23)OCO4)cc(OC)c1O (stereo partly drawn)	–	18.1	4.12	–	–	7.41	> 51.5	4.02	> 100	35.2	–	–	–	–	–	–	–	–	–
CC(Cc1ccccc1)NC1=NCCO1 (stereo not drawn)	> 100	34.5	> 100	> 100	72.3	> 100	–	30.3	–	–	–	–	–	–	–	–	–	–	–
O=C(OCc1ccccc1)N1CCN(C(=O)OCc2ccccc2)CCN(C(=O)OCc2ccccc2)CCN(C(=O)OCc2ccccc2)CCN(C(=O)OCc2ccccc2)CC1	> 100	> 100	> 100	> 100	> 100	–	–	> 100	> 100	73.1	–	–	–	–	–	–	–	–	–
Cc1nnc(-n2c(O)cc(=O)n(-c3ccccc3)c2=S)nc1/C=C/c1ccc(N(C)C)cc1	> 49.5	21.2	13.5	56.3	> 100	> 58.5	> 53.8	–	> 50.6	> 55.8	–	–	–	–	–	–	–	–	–
c1ccc2c(c1)CC1COc3ccccc3C1O2 (stereo not drawn)	> 100	> 100	> 100	–	> 100	–	> 100	> 100	–	> 100	–	–	–	–	–	–	–	–	–
CC(=O)O[C@H]1[C@@H](OC(C)=O)C(C)(C)/C=C/[C@H](C)C(=O)[C@@]2(OC(C)=O)C[C@@](C)(OC(C)=O)[C@H](OC(C)=O)[C@@H]2[C@H]2OC(=O)CC[C@@]2(OC(=O)c2ccccc2)[C@@H]1OCC(C)C	> 100	> 100	> 100	65.4	> 100	> 100	> 100	> 100	–	> 100	–	–	–	–	–	–	–	–	–
O=C1ON=C2C3CC4CC12CC1(C3)C(=O)ON=C41	> 100	> 100	–	–	> 100	> 100	–	> 100	> 100	> 100	–	–	–	–	–	–	–	–	–
COc1ccc(/C=N/NC(=O)c2cnc3[nH]c(=O)n(C)c(=O)c3c2)cc1	> 100	> 100	> 100	> 100	> 100	> 100	> 100	–	> 100	> 100	–	–	–	–	–	–	–	–	–
